Experimental data taken from patent US6603023B2 (priority 1996, dated 2003).
Values joined by “and” are separate entries in the source; they are usually repeats but may differ in a detail not shown here. Equal entries are not always repeated. Where two headings read alike, the source gives them in different places.

Legend:
DC-3F/ADX = assay: cells; format: cell-based, hamster; conditions: DC3F/ADX, Table 3
Method: (§1) The DC-3F hamster lung fibroblast cell line and its actinomycin D-selected sublines (DC-3F/ADII and DC-3F/ADX) were obtained from the Memorial Sloan-Kettering Cancer Center (MSKCC).
(§2) The drug-resistant cell lines were continuously cultured in the presence of the selecting agent, AD, DX, VBL or VM to maintain the drug resistant phenotypes. […] All cells were cultured in RPMI 1640-10% FBS at 37° C. 5% CO2 (see below).
(§3) The cytotoxicity of the drug toward the monolayer cell cultures (such as DC-3F, MCF-7, SK-N-As and sublines) was determined in 96-well microtiter plates by the SRB method as described by Skehan and co-workers (Skehan, P., et al., J. Natl. Cancer Inst. 1990, 82, 1107-1112) for measuring the cellular protein content. Cultures were fixed with trichloroacetic acid and then stained for 30 min with 0.4% suforhodamine B dissolved in 1% acetic acid. Unbound dye was removed by acetic acid washes, and the protein-bound dye was extracted with an unbuffered Tris base (tris(hydroxy-methyl)aminomethane) for determination of absorbance at 570 nm in a 96-well microtiter plate reader. The experiments were carried out in duplicate. Each run entailed six to seven concentrations of the tested drugs. Data were analyzed with the median-effect plot (Chou, T.-C. & Talalay, P. T. (1984) Adv. Enzyme Regul. 22, 27-55) using a previously described computer program (Chou, J., & Chou T.-C. 1987, Dose-effect analysis with microcomputers: Quantitation of ED50, synergism, antagonism, low-dose risk, reception-ligand binding and enzyme kinetics, IBM-PC software and manual, Biosoft, Cambridge, U.K.).
(§4) Concerning Table 3, experiments were carried out using the cell lines DC-3F (parent hamster lung cells), DC-3F/ADII (moderate multidrug-resistant (MDR) cells) and DC-3F/ADX (very strong MDR cells).

[1] = test system: CCRF-CEM human T-cell acute lymphoblastic leukemia cell line; assay: XTT cytotoxicity (cell growth inhibition), CCRF-CEM
Method: as §1, §2
(§5) The cells were cultured at an initial density of 5×10^4 cells/mL. They were maintained in a 5% CO2-humidified atmosphere at 37° C. in RPMI-1640 medium (GIBCO-BRL, Gaithersburg, Md.) containing penicillin (100 U/mL), streptomycin ([…]) (GIBCO-BRL) and 10% heat inactivate fetal bovine serum. Culture for cell suspension (such as for CCRF-CEM, P388 and sublines), were performed by the XTT-microculture tetrazonium method (Scudiero, D. A. et al., Cancer Res. 1988, 48, 4827-4833) in duplicate in 96-well microtiter plates.
(§6) 2′,3′-Bis(methoxy-4-nitro-5-sufophenyl)-5-[(phenylamino)carbonyl]2H-tetrazolium hyudroxide (XTT) was prepared at 1 mg/mL in prewarmed (37° C.) medium without serum. Phenazine methosulfate (PMS) and fresh XTT were mixed together to obtain 0.025 mM PMS-XTT solution (25 μL of the stock 5 mM PMS was added per 5 mL of 1 mg/mL XTT). Following a 72 h incubation, 50 μL of the assay aliquots were added to each well of the cell culture. After incubation at 37° C. for 4 h, absorbance at 450 nm and 630 nm was measured with a microplate reader (EL340, Bio-Tek Instruments, Inc., Winooski, Vt.).

[2] = test system: DC-3F hamster lung fibroblast cell line; assay: SRB cytotoxicity, DC-3F; format: cell-based; conditions: Mesocricetus auratus, DC3F, Table 3
Method: as §1, §2, §3

[3] = test system: PC-3 Human Prostate Carcinoma; assay: PC-3 xenograft; format: in vivo, nude mice
[4] = test system: A549 Human Lung Carcinoma; assay: A549 xenograft; format: in vivo, nude mice
CCRF-CEM/Taxol® = assay: cells; format: cell-based, human
Method: as §2, §5, §6

CCRF-CEM/VBL100 = assay: cells; format: cell-based, human; conditions: for IC50: Homo sapiens, CCRF-CEM
Method: as §2, §5, §6

CCRF-CEM/VM1 = assay: cells; format: cell-based, human
Method: as §2, §5, §6

[5] = test system: MDR human mammary adenocarcinoma MCF-7/Adr xenograft; assay: in vivo; conditions: MCF-7/Adr; i.v. infusion (order wraps over rows r16-r17)
Method: DMSO was used as a vehicle for epothilones. Each mouse received ≦40 μL DMSO in all experiments.
Athymic nude mice (nu/nu) were used for MX-1 and MCF-7/Adr human mammary carcinoma xenografts. Mice were obtained from Taconic Laboratory Animals and Service (Germantown, N.Y.: outbred, Swiss background).

DC-3F/ADII = assay: SRB cytotoxicity, DC-3F/ADII; format: cell-based, hamster; conditions: Mesocricetus auratus, DC3F
Method: as §1, §2, §3, §4

[6] = Homo sapiens, CCRF-CEM, 72 h, Table 1A, XTT
[7] = Homo sapiens, CCRF-CEM, Table 5, single determinations
[8] = Homo sapiens, CCRF-CEM, read-out: IC50 (mean ± of determinations, in parentheses), Table 5
[9] = Table 5, single determinations, listed as VP-16
[10] = dEpoB 30 mg/kg 18 hr i.v. infusion, Taxol 16 mg/kg 6 hr infusion, VBL 2 and VP-16 25 mg/kg i.v. inj
[11] = Q2D x 3: dEpoB 30 mg/kg 18 hr i.v. infusion, Taxol 15 mg/kg 6 hr infusion, VBL 2 and VP-16 25 mg/kg i.v. inj

COc1cc([C@@H]2c3cc4c(cc3[C@@H](O[C@@H]3O[C@@H]5CO[C@@H](C)O[C@H]5[C@H](O)[C@H]3O)[C@H]3COC(=O)[C@H]23)OCO4)cc(OC)c1O [Etoposide, etoposide]
IC50 (DC-3F/ADX): 12.1 µM
IC50 ([1]; Homo sapiens, CCRF-CEM): 0.29 µM
IC50 [1, 6]: 0.29 µM
IC50 ([1]; Homo sapiens, CCRF-CEM, Table 2): 0.221 µM
IC50 [1, 7]: 0.259 µM
IC50 [1, 8]: 0.293 µM
IC50 [1, 9]: 0.323 µM and 0.296 µM
IC50 [2]: 0.0339 µM
Therapeutic effect Rank Order ([3]; PC-3, i.v. infusion (order wraps over rows r24-r25)): dEpoB >> VP-16
Average Body Weight (change), Day 9 [3, 10]: +0.3 g
Average Body Weight (change), Day 11 [3, 10]: -0.1 g
Average Body Weight (change), Day 13 [3, 10]: -2.4 g
Average Tumor Size (TC), Day 9 [3, 10]: 1.00 TC
Average Tumor Size (TC), Day 11 [3, 10]: 1.12 TC
Average Tumor Size (TC), Day 13 [3, 10]: 0.88 TC
Tumor Disappearance [3, 10]: 0/3
Average Body Weight, Day 5 ([3]; initial weight, dEpoB 30 mg/kg 18 hr i.v. infusion, Taxol 16 mg/kg 6 hr infusion, VBL 2 and VP-16 25 mg/kg i.v. inj): 24.9 g
Therapeutic effect Rank Order ([4]; A549, i.v. infusion): Taxol ®, dEpoB, VBL > VP-16
Average Body Weight (change), Day 11 [4, 11]: +0.1 g
Average Body Weight (change), Day 13 [4, 11]: -0.2 g
Average Body Weight (change), Day 15 [4, 11]: -2.2 g
Tumor Disappearance [4, 11]: 0/3
Average Tumor Size, Day 11 ([4]; Q2D x 3: dEpoB 30 mg/kg 18 hr i.v. infusion, Taxol 15 mg/kg 6 hr infusion, VBL 2 and VP-16 25 mg/kg i.v. inj, control 96): 59 mm^3
Average Tumor Size, Day 13 ([4]; Q2D x 3: dEpoB 30 mg/kg 18 hr i.v. infusion, Taxol 15 mg/kg 6 hr infusion, VBL 2 and VP-16 25 mg/kg i.v. inj, control 128): 150 mm^3
Average Tumor Size, Day 15 ([4]; Q2D x 3: dEpoB 30 mg/kg 18 hr i.v. infusion, Taxol 15 mg/kg 6 hr infusion, VBL 2 and VP-16 25 mg/kg i.v. inj, control 306): 275 mm^3
Average Tumor Size, Day 17 ([4]; Q2D x 3: dEpoB 30 mg/kg 18 hr i.v. infusion, Taxol 15 mg/kg 6 hr infusion, VBL 2 and VP-16 25 mg/kg i.v. inj, control 553): 536 mm^3
Average Body Weight, Day 7 ([4]; initial weight, Q2D x 3: dEpoB 30 mg/kg 18 hr i.v. infusion, Taxol 15 mg/kg 6 hr infusion, VBL 2 and VP-16 25 mg/kg i.v. inj): 27.2 g
IC50 (CCRF-CEM/Taxol®; Homo sapiens, CCRF-CEM, 72 h): 1.32 µM
(C)/(A) IC50 ratio (CCRF-CEM/Taxol®; Table 1A, CCRF-CEM/Taxol vs CCRF-CEM): 4.5
Potency in parentheses relative to Epo B in CCRF-CEM cells (CCRF-CEM/VBL100; CCRF-CEM/VBL MDR cells): 1/29514
Potency in square brackets relative to Epo B in CCRF-CEM/VBL MDR cells (CCRF-CEM/VBL100; CCRF-CEM/VBL MDR cells): 1/4919
IC50 (CCRF-CEM/VBL100): 10.3 µM
IC50 (CCRF-CEM/VBL100; 72 h, Table 1A, XTT): 10.3 µM
IC50 (CCRF-CEM/VBL100; Table 2, CCRF-CEM/VLB): 7.39 µM
IC50 (CCRF-CEM/VBL100; read-out: IC50 (mean ± of determinations, in parentheses), Table 5): 10.3 µM
(B)/(A) IC50 ratio (CCRF-CEM/VBL100; Table 1A, CCRF-CEM/VBL100 vs CCRF-CEM): 35
relative resistance (fold) vs parent cell line (CCRF-CEM/VBL100; Table 5): (35.3X)
fold resistance vs parent CCRF-CEM (CCRF-CEM/VM1; CCRF-CEM/VM1 cells): 117 fold
IC50 (CCRF-CEM/VM1; [6]): 34.4 µM
IC50 (CCRF-CEM/VM1; Homo sapiens, CCRF-CEM, Table 2, CCR-CEM/VM-1): 34.5 µM
IC50 (CCRF-CEM/VM1; [7]): 35.1 µM
IC50 (CCRF-CEM/VM1; [8]): 34.4 µM
(D)/(A) IC50 ratio (CCRF-CEM/VM1; Table 1A, CCRF-CEM/VM1 vs CCRF-CEM): 117
relative resistance (fold) vs parent cell line (CCRF-CEM/VM1; Table 5): (117.4X)
IC50 (CCRF-CEM/VM1; [9]): 42.2 µM and 25.9 µM
Therapeutic effect Rank Order [5]: dEpoB >> VP-16,
IC50 (DC-3F/ADII): 0.632 µM
